{"source": "paper PMC7367873", "about": "“Dissecting the sequence determinants for dephosphorylation by the catalytic subunits of phosphatases PP1 and PP2A” (Nature Communications, 2020)", "key": {"GAB2-pS210": {"system": "GAB2-pS210", "assay": "In vitro dephosphorylation of GAB2-pS210 (Western blot)", "assay_type": "biochemical, human", "details": "GAB2-pS210 relative to GAB2, Calyculin A 20 nM 12 min in HeLa Kyoto cells, recombinant PP1c 1 µM, 1 h at 30 °C in lysate", "procedure": "pEGFP(C1)-14-3-3β or pCMV-GAB2-3FLAG was transfected into HeLa Kyoto cells as described in the respective section for 24 h. Cells were incubated with or w/o 20 nM Calyculin A (# 9902 S, Cell Signaling Technology) in complete growth media for 12 min. Cells were washed twice on ice with cold PBS and after addition of 500 µL lysis buffer (100 mM NaCl, 10 mM Tris, 0.1% IGEPAL, 1 mM EDTA, 1 mM EGTA, 20 nM Calyculin A, 1x cOmplete Mini protease inhibitor cocktail (Sigma), 2 mM DTT, 2 mM MnCl2) cells were scraped from plates, lysed by 10 pushes through an injection needle and the insoluble fraction was pelleted by centrifugation (10 min, 10^4 rcf, 4 °C). […] Beads were then washed three times with lysis buffer and samples were eluted in 1x SDS sample buffer by heating to 95 °C for 10 min and further analyzed by SDS PAGE for 14-3-3/GAB2 association and phosphorylation status of GAB2-pS210.\nFor SDS-PAGE, samples were loaded on NuPAGE™ 4-12% Bis-Tris protein gels (Invitrogen) and gel electrophoresis was performed at 180 V constant in 1x MOPS buffer. […] All blots were quantified using raw images and ImageLab software (v6.0.1, BioRad): Files were imported and analyzed without further modifications. […] The quantification was exported from the analysis table and measurements of background adjusted band volumes where used for further normalization steps and graphical depiction. […]"}, "[1]": {"system": "GAB2/GFP-14-3-3β interaction", "assay": "GAB2/14-3-3 binding assay (GFP-14-3-3β pull-down, Western blot)", "design": "species or system human", "procedure": "pEGFP(C1)-14-3-3β or pCMV-GAB2-3FLAG was transfected into HeLa Kyoto cells as described in the respective section for 24 h. Cells were incubated with or w/o 20 nM Calyculin A (# 9902 S, Cell Signaling Technology) in complete growth media for 12 min. Cells were washed twice on ice with cold PBS and after addition of 500 µL lysis buffer (100 mM NaCl, 10 mM Tris, 0.1% IGEPAL, 1 mM EDTA, 1 mM EGTA, 20 nM Calyculin A, 1x cOmplete Mini protease inhibitor cocktail (Sigma), 2 mM DTT, 2 mM MnCl2) cells were scraped from plates, lysed by 10 pushes through an injection needle and the insoluble fraction was pelleted by centrifugation (10 min, 10^4 rcf, 4 °C). Supernatants were then subjected to incubation with 1 µM recombinant PP1c (if not indicated otherwise) or buffer for 1 h at 30 °C. […] Next, we subjected samples to immunoprecipitation/pull-down using 25 µL of α-FLAG M2 magnetic bead slurry (Sigma-Aldrich) or an equal volume of bead-coupled α-GFP nanobodies (EMBL PEPcore Core Facility) for 2 h at 4 °C. Beads were then washed three times with lysis buffer and samples were eluted in 1x SDS sample buffer by heating to 95 °C for 10 min and further analyzed by SDS PAGE for 14-3-3/GAB2 association and phosphorylation status of GAB2-pS210.\nFor SDS-PAGE, samples were loaded on NuPAGE™ 4-12% Bis-Tris protein gels (Invitrogen) and gel electrophoresis was performed at 180 V constant in 1x MOPS buffer. Samples were transferred onto CN blotting membranes (0.45 µm, neoLab) by wet blotting. Membranes were stained using Ponceau, followed by blocking with Tris-buffered saline with 0.1% Tween (TBS-T) containing 5% (w/v) non-fat milk for 45 min at room temperature. After three washes (5 min), membranes were then incubated with the following antibodies in TBS-T with 5% BSA overnight at 4 °C: α-GFP (1:2000, Abcam, ab6556), α-GAB2 (1:1000, CST, #3239), α-GAB2-pS210 (1:250, Symansis, customized purification), α-FLAG (1:1000, M2, Sigma-Aldrich, F3165), α-pan14-3-3 (1:500, SCBT, sc-629), α-PP1 (1:1000, SCBT, sc-7482), α-PP2A (1:1000, SCBT, sc-130237) or α-6His (1:2000, Abcam, ab9108). Afterwards blots were washed three times in TBS-T and incubated with goat anti-mouse IgG-peroxidase conjugate (1:2500, Sigma, A0168), donkey anti-rabbit IgG-horseradish peroxidase (HRP) conjugate (1:2500, GE Healthcare, GENA934), or rabbit anti-sheep IgG (H + L) HRP conjugate (1:2500, Thermo Fisher Scientific, 61-8620) for 2 h at room temperature. […] All blots were quantified using raw images and ImageLab software (v6.0.1, BioRad): Files were imported and analyzed without further modifications. […] The quantification was exported from the analysis table and measurements of background adjusted band volumes where used for further normalization steps and graphical depiction. […]"}, "PP1/PP2A": {"system": "PP1/PP2A", "details": "20 nM Calyculin A in cell culture medium and lysis buffer; ref PMID 30338897; cited from earlier work", "source_text": "page 8: an adjusted p-value <0.01 are highlighted in bold in the heat-map comparing PP1c/PP2Ac. […] Furthermore, this new comparison also brought to our attention an apparently very strong differential effect of Pro in +1. We have therefore synthesized the Cterm peptide AAAApTPFGAK. Like in the case of ba ..."}, "PP1c": {"target": "T1, PP1c (Homo sapiens, UniProt P62136)", "T1 construct": "His tag with TEV site (N, cleaved yes); intein (pTXB1) (C, cleaved yes); made in house; host or cells: E. coli BL21Star(DE3)pRARE", "T1 sequence (P62136 whole entry)": "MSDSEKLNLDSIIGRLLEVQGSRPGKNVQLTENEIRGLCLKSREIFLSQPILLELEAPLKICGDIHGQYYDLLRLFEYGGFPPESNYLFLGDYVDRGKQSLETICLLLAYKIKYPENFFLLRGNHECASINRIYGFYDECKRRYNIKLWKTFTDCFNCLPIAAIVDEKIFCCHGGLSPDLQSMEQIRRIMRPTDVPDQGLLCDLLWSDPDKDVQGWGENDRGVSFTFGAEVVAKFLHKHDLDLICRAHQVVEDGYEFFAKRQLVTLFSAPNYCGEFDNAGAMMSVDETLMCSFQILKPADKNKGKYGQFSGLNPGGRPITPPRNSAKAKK", "assay": "Kinetics of phosphopeptide dephosphorylation by PP1c (EnzChek Phosphate Assay)", "assay_type": "biochemical", "details": "non-competitive phosphatase activity assay, Supplementary Fig. 3c", "procedure": "(§1) Prior to library dephosphorylation with subsequent MS analysis, as well as for the confirmation of MS results by directed peptide synthesis and dephosphorylation kinetics, the release of phosphate over time from peptides or libraries had to be monitored: The libraries and peptides were dissolved in 25% DMSO and 75% H2O at 10 mM. The EnzChek Phosphate Assay Kit (Thermo Fisher Scientific) was used to assess the kinetics/dynamics of the library or peptide dephosphorylation by PP1c and PP2Ac. The assay was carried out in a volume of 100 µL reaction buffer (20 mM Tris, 100 mM NaCl, 1 mM DTT, 0.15 units PNP, 0.2 mM MESG,) containing 100 µM phosphopeptide library or indicated concentrations of peptide and 25 nM phosphatase. Because of our goal to identify differences in selectivity, we used equimolar concentrations of the phosphatases. […] The change of absorbance was detected at 360 nm at 25 °C on a Synergy H4 microplate reader using the software Gen5. […] For analysis of enzyme kinetics, raw data were further analyzed in GraphPad Prism v6.\n(§2) The datasets of Nterm or Cterm libraries treated with recombinant PP1c and PP2Ac were used. […] Data analysis was carried out in GraphPad Prism v6 and the kcat/Km was calculated by comparison to a phosphate standard. […]"}, "PP2Ac": {"target": "T2, PP2Ac (Homo sapiens, UniProt P67775)", "T2 construct": "purchased Cayman Chemical 10011237", "T2 sequence (P67775 1-308 limits assumed)": "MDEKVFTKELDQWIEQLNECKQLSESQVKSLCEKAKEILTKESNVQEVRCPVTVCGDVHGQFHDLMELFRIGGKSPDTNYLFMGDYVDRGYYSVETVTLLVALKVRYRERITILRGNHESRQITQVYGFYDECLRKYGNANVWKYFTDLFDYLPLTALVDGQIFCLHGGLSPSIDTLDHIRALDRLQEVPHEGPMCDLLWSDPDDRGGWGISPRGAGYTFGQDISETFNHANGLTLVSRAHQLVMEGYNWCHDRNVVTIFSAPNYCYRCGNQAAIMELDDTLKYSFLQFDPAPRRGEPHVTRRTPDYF", "assay": "Kinetics of phosphopeptide dephosphorylation by PP2Ac (EnzChek Phosphate Assay)", "assay_type": "biochemical", "details": "non-competitive phosphatase activity assay, Supplementary Fig. 3c", "procedure": "as §1, §2"}, "PP1c/PP2Ac": {"system": "PP1c/PP2Ac", "assay": "PP1c versus PP2Ac specificity of p-sites (pairwise comparison / hierarchical clustering of phosphoproteomic data)", "assay_type": "biochemical, human", "details": "p-site significantly decreased exclusively by PP1c or PP2Ac; 1 µM phosphatase, HeLa Kyoto lysate, 1 h, 30 °C", "procedure": "For phosphoproteomics, HeLa Kyoto cells were incubated with 20 nM Calyculin A (CST, #9902) for 10–15 min. This time point was determined empirically to yield maximal phosphatase inhibition without cells showing pleiotropic effects. Subsequently, cells were placed on ice and washed twice with cold PBS and scraped in lysis buffer (100 mM NaCl, 10 mM Tris, 0.1% IGEPAL, 1 mM EDTA, 1 mM EGTA, 20 nM Calyculin A, 1x cOmplete Mini protease inhibitor cocktail (Sigma), 1 mM DTT, 1 mM MnCl2, pH 7.5). After 10 pushes through an injection needle (21 G, BD), lysate was cleared from the insoluble fraction by centrifugation (10 min, 10^4 rcf, 4 °C). Protein concentration was then determined by a Bradford Assay and equal amounts of 1 mg total protein were incubated with recombinant PP1c/PP2Ac or buffer at a final phosphatase concentration of 1 µM in a total volume of 200 µL for 1 h at 30 °C. Lysates were then immediately placed on ice. PhosStop […] (Roche) was added and proteins were denatured by adding urea to a final concentration of 8 M taking into account the volume increase. Samples were then snap-frozen in liquid nitrogen for storage and subsequent MS analysis.\nDownstream analysis of the phosphoproteomic datasets was carried out using the software tool Perseus[66]. For analysis of phosphoproteomic experiments, row-wise, median-normalized data (see previous section) was linked to known regulatory sites by PhosphoSitePlus entries and categorical columns for treatments were assigned. Reverse peptides and potential contaminants were filtered. Next, categorical columns for biological functions and treatments were assigned. TMT reporter intensities were then transformed into log2. At this point, all data were then filtered for valid values in all three replicates of at least one condition. Next, the distribution of TMT reporter intensities was assessed visually by plotting count-based histogramms and in a multiscatter plot using the Pearson correlation as an estimate of reproducibility. Next, NA (=not available: missing) values were replaced by imputation from a normal distribution (width 0.3, down-shift 1.8, per column). The data quality was routinely assessed by two means: First, by plotting a histogram of peptide length vs. counts and visualization of imputed values to confirm a normal distribution of the data, and secondly by principal component analysis (default settings in Perseus) to judge the sample grouping.\nFor hierarchical clustering, the results of the one-way ANOVA were processed for two more steps in Perseus: first data were filtered for significant hits from the one-way ANOVA and then subjected to z-transformation. Hierarchical clustering images were produced using Euclidean distance, 300 clusters and 10 rounds of iteration.\nAlso all further data processing for protein enrichment and extraction of protein sequences in positions −5 to +5 relative to the p-sites of interest for subsequent motif analysis was performed using RStudio with R v3.3.2 using the packages tidyverse and BioStrings. In order to study the sequence specificity of PP1c and PP2Ac on the protein level, position specific probability matrices, representing the relative occurrence for each amino acid surrounding pSer/pThr were produced by extracting sequence information in positions −5 to +5 for all PP1c/PP2Ac-sensitive class I p-sites. Next, the count for each amino acid in each position was divided by the total of all counts for a certain position, resulting in relative abundance. […] Importantly, amino acids with less than 25 counts in PP1-sensitive/-insensitive or PP2A-sensitive/insensitive comparisons were excluded. For calculating a heat map directly comparing PP1c against PP2Ac, these fold changes were divided. […] Obtained p-values were adjusted for multiple testing using the method of Benjamini and Hochberg.\nPP1c/PP2Ac-sensitive class I sites were divided into three classes as illustrated for PP1c in Supplementary Fig. 4c. […]"}}, "data": [{"molecule": "COC[C@@H]([C@H](O)[C@H](O)C(=O)NCC[C@H](C)c1nc(/C=C/C[C@@H]2O[C@]3(C[C@@H](O)[C@@H]2C)O[C@H]([C@H](C[C@H](O)[C@H](C)[C@H](O)[C@H](C)/C=C(C)/C(C)=C/C=C/C(C)=C\\C#N)OC)[C@H](OP(=O)(O)O)C3(C)C)co1)N(C)C", "note": "[Calyculin A, reference compound]", "values": [{"measurement": "p-level of GAB2 pS210", "setting": "GAB2-pS210", "value": "increased"}, {"measurement": "interaction of GAB2 with overexpressed GFP-14-3-3β", "setting": "[1]; Calyculin A 20 nM in cells, recombinant PP1c in lysate 1 h at 30 °C, PP1c-concentration-dependent, three independent experiments", "value": "strongly increased"}, {"measurement": "interaction of GAB2 with GFP-14-3-3β, PP1c pre-inhibited", "setting": "[1]; recombinant PP1c mixed with equimolar Calyculin A for 5–10 min before addition to lysate", "value": "abolishes the effect"}, {"measurement": "stabilization of phosphorylation of PP1/PP2A substrate sites (such as Ser259 of CRAF/Raf-1)", "setting": "PP1/PP2A", "value": "stabilize"}]}, {"molecule": "AAAApTPFGAK [Cterm peptide with Pro in +1]", "values": [{"measurement": "dephosphorylation by PP1c of peptide with Pro in +1 (in words)", "setting": "PP1c", "value": "good substrate"}, {"measurement": "dephosphorylation by PP2Ac of peptide with Pro in +1 (in words)", "setting": "PP2Ac", "value": "unable to dephosphorylate"}]}, {"molecule": "SRSF11 207: S/R-rich splicing factor p-site, window AAGLVSPSLKS", "values": [{"measurement": "Sensitivity (phosphatase exclusively dephosphorylating the p-site)", "setting": "PP1c/PP2Ac", "value": "PP2Ac"}]}, {"molecule": "USP8 718: 14-3-3 interaction site, window LKRSYSSPDIT", "values": [{"measurement": "Sensitivity (phosphatase exclusively dephosphorylating the p-site)", "setting": "PP1c/PP2Ac", "value": "PP1c"}]}, {"molecule": "YAP1 127: 14-3-3 interaction site, window VRAHSSPASLQ", "values": [{"measurement": "Sensitivity (phosphatase exclusively dephosphorylating the p-site)", "setting": "PP1c/PP2Ac", "value": "PP2Ac"}]}]}
